# Data published in PMC12072186, “A Novel Small Molecule Enhances Stable Dopamine Delivery to the Brain in Models of Parkinson’s Disease” (International Journal of Molecular Sciences, 2025).
# “Also recorded” adds a separate entry of the source. Like-named read-outs stand apart in the source and are kept apart here.
# How the values were obtained:
# caspase-3 activity = assay: Tissue toxicity via caspase-3 activity assay; type: in vivo; conditions: liver, brain, kidney, lung, spleen, heart, serum, small intestine; young TgA53T mice; vs naïve, DMSO and D5
# Experimental: We further verified cell death via caspase-3 activity assays of the liver, brain, kidney, lung, spleen, heart, serum, and small intestine in young TgA53T mice (6–7 months old).
# Tissue toxicity was assessed in young (6–7-month-old) and old (12–13-month-old) A53T mice. The mice received daily i.p. escalating doses of Pegasus or control D5 (tetracycline derivative with no DA) vs. DMSO of 10, 25, 50, and 100 mg/kg for 4 days with each dose up to 16 days, and tissues were analyzed via caspase-3 activity. The caspase-3 activity assay (EnzChek® Invitrogen, Waltham, MA, USA) was conducted according to manufacturer’s protocols as we previously described.
# [1] = Pharmacokinetics after single i.p. injection, serum and brain (UHPLC-MS/MS); type: in vivo, mouse; conditions: for Kp: intraperitoneal; for half-life / AUC(0-inf): ip
# human alpha-synuclein = assay: Western blot of soluble brain extracts for alpha-synuclein; type: in vivo, mouse; conditions: young TgA53T mice (6–7 months old), vs D5 and DMSO
# Experimental: The concentration of CNS alpha-synuclein via ELISA was reduced in the brain lysates of old (11–12-month-old) TgA53T mice treated with Pegasus compared to DMSO-treated controls (Figure 5I).
# To extract the soluble proteins, whole brain tissues, which excluded the olfactory bulb, cerebellum, and spinal cord, were isolated and homogenized in 1 × STEN buffer (50 mM Tris (pH 7.6), 150 mM NaCl, 2 mM EDTA, 0.2% NP-40, 0.2% BSA, 20 mM PMSF, and protease cocktail inhibitor). The proteins were quantified and normalized for WB (and ELISA) on 4–12% Criterion™ XT Bis-Tris Protein Gel (Cat No: 3450125, Bio-rad, Hercules, CA, USA). Beta-actin (β-actin) was probed (1:3000) with monoclonal antibody (Cat No: MAB1501R, Emdmillipore, Danvers, MA, USA). Human alpha-synuclein was probed (1:4000) with monoclonal antibody (Cat No: AHB0261, Thermo Fisher, Waltham, MA, USA). Human oligomeric alpha-synuclein was probed (1:500) with anti-alpha-synuclein oligomer-specific syn33 antibody (Cat No: ABN2265, Sigma-Aldrich, St. Louis, MO, USA). WBs were quantified by densitometry using Quantity One 4.6.3 software (Bio Rad, Hercules, CA, USA) and Image J version 1.54m.
# [2] = tested on: tyrosine hydroxylase (TH+)-positive neurons; assay: Tyrosine hydroxylase immunohistochemistry (DAB staining); type: in vivo, mouse; conditions: vs DMSO
# Experimental: To further examine whether Pegasus has any effects on DA-producing neurons, we performed immunohistochemistry to visualize tyrosine hydroxylase (TH+)-positive neurons in both the SN and striatum in Pegasus-treated versus untreated mice. TH is a rate-limiting enzyme in the biosynthesis of DA in the brain. We used DAB staining to highlight the TH+ neurons.
# Animals were deeply anesthetized with a mixture of Xylazine and Ketamine (8:80 mg/kg), washed with normal saline for 1 min, and then perfused with 4% paraformaldehyde (PFA) for 15 min. The brains were dissected out and immediately stored in 4% PFA for 24 h at 4 °C, and then transferred to 30% sucrose at 4 °C for 48 h. The brains were cut using a cryostat microtome into 20 µm thick coronal sections and stored at −20 °C. Staining for tyrosine hydroxylase (TH) was probed with anti-tyrosine hydroxylase antibody (Cat No: AB152, Sigma-Aldrich, St. Louis, MO, USA). GFAP (glial fibrillary acidic protein) was stained with anti-GFAP monoclonal antibody (Cat No:MS1376P1, Fisher Scientific, Newington, NH, USA). […] TH^+ cells were counted in a stereology-like manner across multiple visual fields (typically 20 fields) in a single animal, and the same procedure was repeated on several animals to obtain the best approximation of TH staining.
# microglia (IBA1) = assay: IBA1 immunohistochemistry of microglia; type: in vivo, mouse; conditions: young and old TgA53T mice, vs DMSO
# Excerpt: Neuroinflammation is one of the most important pathogeneses in PD in addition to alpha-synuclein aggregation. To examine the effects of Pegasus on glial cell activation, we performed immunohistochemistry of astrocyte and microglia from the brains of treated vs. untreated young (6–7-month-old) and old (12–13-month-old) TgA53T mice.
smiles,measurement,setting,value
C[C@H]1c2ccc(NC(=O)CCC(=O)NCCc3ccc(O)c(O)c3)c(O)c2C(=O)C2=C(O)[C@]3(O)C(=O)C(C(N)=O)=C(O)CC3[C@@H](O)C21 (stereo partly shown) [Pegasus],Caspase-3 activity in tissues,caspase-3 activity,no apparent toxicity in organs; also recorded: no significant changes in caspase-3 activity
same,Kp,"[1]; C57BL/6 (mouse), Sprague Dawley (rat), mouse and rat brain, read-out: Share of Pegasus detected in the brain",< 0.01
same,half-life,"[1]; both sexes, C57BL/6, mouse, brain, 50 mg/kg, 50 mg/kg ip, read-out: Brain T1/2 (elimination) (converted)",3.77 h
same,half-life,"[1]; both sexes, C57BL/6, mouse, brain, 100 mg/kg, 100 mg/kg ip, read-out: Brain T1/2 (elimination) (converted)",1.82 h
same,AUC(0-inf),"[1]; both sexes, C57BL/6, mouse, brain, 100 mg/kg, across 50 and 100 mg/kg i.p., read-out: AUC0-inf in the brain",86.6 to 223 ng·h/mL
same,half-life,"[1]; both sexes, C57BL/6, mouse, brain, 100 mg/kg, across 50 and 100 mg/kg i.p., read-out: Elimination half time T1/2 in the brain",1.82 to 3.77 h
same,Kp,"[1]; both sexes, C57BL/6, mouse, brain/serum, 50 mg/kg ip, read-out: Ratio of Brain/Serum (%)",0.007
same,Kp,"[1]; both sexes, C57BL/6, mouse, brain/serum, 100 mg/kg ip, read-out: Ratio of Brain/Serum (%)",0.006
same,Kp,"[1]; both sexes, C57BL/6, mouse, brain/serum, across 50 and 100 mg/kg i.p., read-out: Percentage ratio of brain/serum",0.006 to 0.007
same,Tmax,"[1]; both sexes, C57BL/6, mouse, brain, 50 mg/kg ip, read-out: Brain Tmax",2 h
same,Tmax,"[1]; both sexes, C57BL/6, mouse, brain, 100 mg/kg ip, read-out: Brain Tmax",1.5 h
same,AUC(0-inf),"[1]; both sexes, C57BL/6, mouse, serum, 50 mg/kg, 50 mg/kg ip, read-out: Serum AUC (0-inf)",17200 ng·h/mL
same,half-life,"[1]; both sexes, C57BL/6, mouse, serum, 50 mg/kg, 50 mg/kg ip, read-out: Serum T1/2 (elimination) (converted)",4.11 h
same,AUC(0-inf),"[1]; both sexes, C57BL/6, mouse, serum, 100 mg/kg, 100 mg/kg ip, read-out: Serum AUC (0-inf)",49100 ng·h/mL
same,half-life,"[1]; both sexes, C57BL/6, mouse, serum, 100 mg/kg, 100 mg/kg ip, read-out: Serum T1/2 (elimination) (converted)",4.74 h
same,AUC(0-inf),"[1]; both sexes, C57BL/6, mouse, serum, 100 mg/kg, across 50 and 100 mg/kg i.p., read-out: AUC0-inf in the serum",17200 to 49100 ng·h/mL
same,half-life,"[1]; both sexes, C57BL/6, mouse, serum, 100 mg/kg, across 50 and 100 mg/kg i.p., read-out: Elimination half time T1/2 in the serum",4.11 to 4.74 h
same,Cmax,"[1]; both sexes, C57BL/6, mouse, serum, 50 mg/kg ip, read-out: Serum Cmax",7.97 µM
same,Cmax,"[1]; both sexes, C57BL/6, mouse, serum, 50 mg/kg ip, read-out: Serum Cmax (ng/ml)",5190 ng/mL
same,Tmax,"[1]; both sexes, C57BL/6, mouse, serum, 50 mg/kg ip, read-out: Serum Tmax",2 h
same,Cmax,"[1]; both sexes, C57BL/6, mouse, serum, 100 mg/kg ip, read-out: Serum Cmax",32.7 µM
same,Cmax,"[1]; both sexes, C57BL/6, mouse, serum, 100 mg/kg ip, read-out: Serum Cmax (ng/ml)",21300 ng/mL
same,Tmax,"[1]; both sexes, C57BL/6, mouse, serum, 100 mg/kg ip, read-out: Serum Tmax",2.5 h
same,Monomeric alpha-synuclein level (WB),human alpha-synuclein,significant decreases
same,Oligomeric alpha-synuclein level (WB),human alpha-synuclein,significant decreases
same,Cell count of TH+ neurons in the SN,[2]; young (6–7-month-old) and old (12–13-month-old) TgA53T mice,dramatically increases the cell count
same,DA nerve terminals (TH+) in the striatum,[2]; young and old TgA53T mice,dramatically increases
same,IBA1 staining in the hippocampus,microglia (IBA1),No differences in IBA1 staining
